These results are taken from patent publication US20210138080A1, “CONJUGATES” (GLYKOS BIOMEDICAL OY, priority 2018, published 2021).

“Also recorded” adds a separate entry of the source. Like-named read-outs stand apart in the source and are kept apart here.

Data set [1] relates to NCI-N87 cancer cell line tumors. The experiment in a line: in vivo trial, cancer cell xenografts on chicken egg chorioallantoic membrane (CAM): tumor weight. As to conditions: for Mean tumor size: five doses E10-E17, 1.5 mg/kg pembrolizumab, 1.8 mg/kg 33DFTG, weighed E18, PBS control 30.6. As to the method: (§1) The study was performed by Inovotion SAS (La Tronche, France). Fertilized chicken eggs were incubated at 37.5° C. with 50% relative humidity for 9 days (E9), when the chorioallantoic membrane (CAM) was dropped down by drilling a small hole through the eggshell into the air sac, and a 1 cm^2 window was cut in the eggshell above the CAM. The NCI-N87 cell line was cultivated in RPMI-1640 medium supplemented with 10% FBS and 1% penicillin/streptomycin. On day E9, cells were detached by trypsin, washed with complete medium and suspended in graft medium. An inoculum of 2 million cells was added onto the CAM of each egg. […] Living grafted eggs were randomized into groups and were then treated on day E10, E11.5, E13, E14.5 and E17 (five doses) by dropping 100 μl of vehicle (PBS) and compounds (alone or in combination) onto the tumor. On day 18 (E18) the upper portion of the CAM was removed, washed in PBS and then directly transferred in PFA (fixation for 48 h). The tumors were then carefully cut away from normal CAM tissue and weighed. Eggs were checked at each treatment time, or at least every two days, for viability during the study. At the end of the study, the number of dead embryos was counted and combined with the observation of eventual visible macroscopic abnormalities (observation done during the sample collection) to evaluate the toxicity.

For another data set, the system named is egg embryos. The experiment in a line: in vivo CAM trial: embryo viability (toxicity). The procedure:
as §1

For data set [2], the target named is T1, Galectin-1 (Homo sapiens, UniProt P09382).
T1 construct: purchased Abcam, Cambridge, United Kingdom
T1 sequence (P09382 whole entry): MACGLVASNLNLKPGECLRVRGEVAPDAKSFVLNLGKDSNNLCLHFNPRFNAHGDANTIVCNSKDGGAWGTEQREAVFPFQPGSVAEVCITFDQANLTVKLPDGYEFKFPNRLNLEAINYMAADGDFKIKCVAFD
The experiment in a line: Alexa Fluor 488-Galectin-1 binding to SKOV-3 cells by FACS. The format is cell-based. As to the method:
(§2) After the incubation, cells were stained with Alexa Fluor 488-conjugated human recombinant Galectin-1, and Alexa Fluor 488-conjugated human recombinant Galectin-3 (both from Abcam, Cambridge, United Kingdom; and both at 10 μg/ml) for 45 minutes at +4° C. Cells were washed and stored on ice in the dark until analysed by FACSAriaII flow cytometer.

In data set [3] the target is T2, Galectin-3 (Homo sapiens, UniProt P17931). Conditions: SKOV-3 cells, 2 μM 33DFTG for 3 days; Galectin-3 10 μg/ml; control treatment 1940. As to the method: as §2
T2 sequence (P17931 whole entry): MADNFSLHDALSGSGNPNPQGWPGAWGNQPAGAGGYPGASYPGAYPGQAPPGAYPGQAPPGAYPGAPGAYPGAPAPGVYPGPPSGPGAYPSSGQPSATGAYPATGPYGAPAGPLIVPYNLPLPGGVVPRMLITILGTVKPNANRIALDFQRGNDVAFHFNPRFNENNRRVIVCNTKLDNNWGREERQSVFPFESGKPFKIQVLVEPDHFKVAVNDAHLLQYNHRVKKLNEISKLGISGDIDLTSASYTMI
For data set [4], the target named is T1, Galectin-1. The experiment in a line: Alexa Fluor 488-Galectin-1 binding to HSC-2 cells by FACS. The format is cell-based. As to the method: as §2
(§3) In parallel, untreated cells were cultured in normal cell culture medium. For flow cytometry analysis, cells were detached with trypsin, washed, and stained with AlexaFluor488-conjugated Galectin-1 and Galectin-3 proteins as above. FACS was performed as above.

Data set [5] deals with T2, Galectin-3. Conditions: HSC-2 cells, 2 μM 33DFTG for 2 days; control treatment 1247. The procedure:
as §2, §3

In the case of “Pembrolizumab: pembrolizumab (Keytruda, Merck)”, the Mean tumor size in data set [1] is 33.5 mg. Also, the “tumor size / therapeutic efficacy compared to control group (in words)” value in data set [1] (repeated dose) is given as “neither pembrolizumab alone or 33DFTG alone showed significant difference”. Also, the “% alive” value with egg embryos (egg embryos at end of study, PBS control 81) turned out to be 73%.
Turning to `OC[C@H]1O[C@@H](S[C@@H]2O[C@H](CO)[C@H](O)[C@H](n3cc(-c4cccc(F)c4)nn3)[C@H]2O)[C@H](O)[C@@H](n2cc(-c3cccc(F)c3)nn2)[C@H]1O` [33DFTG, 3,3′-dideoxy-3,3′-bis-[4-(3-fluorophenyl)-1H-1,2,3-triazol-1-yl]-1,1′-sulfanediyl-di-β-D-galactopyranoside], the “binding of Galectin-1 to the cells (in words)” value at Galectin-1 [2] (2 μM 33DFTG) and at Galectin-1 [4] (2 μM 33DFTG) was “effective inhibition; also recorded: clearly decreased” throughout. The “Mean fluorescence intensity, Galectin-1” value came out at 186 on Galectin-1 [2] (2 μM 33DFTG for 3 days, Galectin-1 10 μg/ml, control treatment 439) and 226 on Galectin-1 [4] (2 μM 33DFTG for 2 days, control treatment 521). Also, the “Mean fluorescence intensity, Galectin-3” value at Galectin-3 [3] came out at 165; on Galectin-3 [5], 129. Also, the Mean tumor size in data set [1] amounted to 35.8 mg. The “% alive” value in the data set on egg embryos (chicken, in vivo, 8 days) is 64%.
